pEC50, pKi: −log10 of the molar value. Square brackets hold non-standard residues; d marks the D form. Peptide text beside a SMILES is read from it. Nle = CCCC[C@H](N)C(=O)O; βAla = NCCC(=O)O
Assays:
[1] = biological target: T1, Bombesin receptor subtype-3 (Homo sapiens, UniProt P32247); experiment: Agonist activity at recombinant BRS-3 receptor expressed in baculovirus-transduced HEK293 cells assessed as intracellular calcium mobilization by FLIPR assay; type: functional
T1 sequence (P32247 whole entry): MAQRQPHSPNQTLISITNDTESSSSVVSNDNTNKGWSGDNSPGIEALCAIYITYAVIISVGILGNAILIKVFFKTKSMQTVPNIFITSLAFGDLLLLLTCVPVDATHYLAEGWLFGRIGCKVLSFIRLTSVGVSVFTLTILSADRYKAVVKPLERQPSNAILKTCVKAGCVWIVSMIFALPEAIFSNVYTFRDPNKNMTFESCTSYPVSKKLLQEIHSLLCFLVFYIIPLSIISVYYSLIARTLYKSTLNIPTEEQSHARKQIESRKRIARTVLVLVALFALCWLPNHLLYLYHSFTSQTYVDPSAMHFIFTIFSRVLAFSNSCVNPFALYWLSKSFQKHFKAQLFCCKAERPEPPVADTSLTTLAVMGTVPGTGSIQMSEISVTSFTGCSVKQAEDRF

[2] = biological target: T2, Bombesin receptor subtype-3 (Homo sapiens) (UniProt P32247); experiment: Agonist activity at recombinant BRS-3 receptor expressed in baculovirus-transduced HEK293 cells assessed as maximum response of intracellular calcium mobilization by FLIPR assay relative to D-Phe-Gln-Trp-Ala-Val-beta-Ala-His-Phe-Nle-NH2; type: functional
T2 sequence (whole entry): T1 sequence (P32247 whole entry)

[3] = biological target: T1, Bombesin receptor subtype-3; experiment: Binding affinity to BRS-3 receptor
[4] = biological target: T3, Gastrin-releasing peptide receptor (Homo sapiens, UniProt P30550); experiment: Agonist activity at recombinant gastrin releasing peptide receptor expressed in baculovirus-transduced HEK293 cells assessed as intracellular calcium mobilization by FLIPR assay; type: functional
T3 sequence (P30550 whole entry): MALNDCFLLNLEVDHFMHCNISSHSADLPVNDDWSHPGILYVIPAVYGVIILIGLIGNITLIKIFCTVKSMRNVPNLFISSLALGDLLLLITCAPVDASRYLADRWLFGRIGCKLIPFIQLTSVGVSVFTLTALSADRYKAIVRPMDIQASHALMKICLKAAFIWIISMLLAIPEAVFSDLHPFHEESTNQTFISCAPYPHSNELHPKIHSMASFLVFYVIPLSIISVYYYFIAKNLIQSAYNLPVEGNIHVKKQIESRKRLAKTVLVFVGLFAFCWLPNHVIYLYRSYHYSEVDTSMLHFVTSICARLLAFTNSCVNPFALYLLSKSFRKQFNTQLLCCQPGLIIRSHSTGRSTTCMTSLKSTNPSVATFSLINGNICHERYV

Neuromedin-B receptor [5] = biological target: T4, Neuromedin-B receptor (Homo sapiens, UniProt P28336); experiment: Binding affinity to neuromedin B receptor
T4 sequence (P28336 whole entry): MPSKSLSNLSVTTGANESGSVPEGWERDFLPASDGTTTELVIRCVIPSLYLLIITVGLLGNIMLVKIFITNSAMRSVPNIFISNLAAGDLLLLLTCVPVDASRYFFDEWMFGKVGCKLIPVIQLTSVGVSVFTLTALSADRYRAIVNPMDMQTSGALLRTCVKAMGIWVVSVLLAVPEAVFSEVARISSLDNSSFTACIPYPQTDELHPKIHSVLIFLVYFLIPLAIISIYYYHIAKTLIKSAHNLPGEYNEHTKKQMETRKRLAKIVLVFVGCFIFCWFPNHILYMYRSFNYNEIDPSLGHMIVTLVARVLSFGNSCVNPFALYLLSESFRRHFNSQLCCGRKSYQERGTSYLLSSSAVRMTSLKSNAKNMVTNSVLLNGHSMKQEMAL

Neuromedin-B receptor [6] = biological target: T4, Neuromedin-B receptor; experiment: Agonist activity at recombinant neuromedin B receptor expressed in baculovirus-transduced HEK293 cells assessed as intracellular calcium mobilization by FLIPR assay; type: functional
[7] = biological target: T3, Gastrin-releasing peptide receptor; experiment: Binding affinity to gastrin releasing peptide receptor
[8] = Half life in iv dosed rat; type: ADME, organism-based; conditions: in vivo
[9] = Clearance in iv dosed rat; type: ADME, organism-based; conditions: in vivo
[10] = Volume of distribution at steady state in iv dosed rat; type: ADME, organism-based; conditions: in vivo, read-out: Vdss

SMILES	pEC50 [1]	%max [2] [%]	other results
COc1ccc2nc(NCc3cc4c(cc3Cl)OCO4)[nH]c2c1	< 4.49	–	–
COc1ccc2nc(SCc3ccc(F)c(F)c3)[nH]c2c1	< 4.49	–	–
COc1ccc2nc(/C=C/c3cc4c(cc3Cl)OCO4)[nH]c2c1	< 4.49	–	–
COc1ccc2nc(SCc3n[nH]c4ccccc34)[nH]c2c1	< 4.49	–	–
COc1ccc2nc(CCc3cc4c(cc3Cl)OCO4)oc2c1	< 4.49	–	–
Cc1cc2nc(COc3cc4c(cc3Cl)OCO4)[nH]c2cc1Cl	< 4.49	–	–
COc1ccc2sc(CCc3cc4c(cc3Cl)OCO4)nc2c1	< 4.49	–	–
COc1ccc2[nH]c(SCc3ncc(C)c(OC)c3C)nc2c1 [UFIPRAZOLE]	5.41	64	–
COc1ccc2nc(NC(=O)c3cc4c(cc3Cl)OCO4)[nH]c2c1	< 4.49	–	–
COc1ccc2nc(SCc3ccc4ccccc4c3)[nH]c2c1	< 4.49	–	–
FC(F)(F)c1ccc2nc(COc3cc4c(cc3Cl)OCO4)[nH]c2c1	6.62	69	–
COc1ccc2nc(SCc3cc4c(cc3Cl)OCO4)[nH]c2c1	6.42	67	–
CCCC[C@H](NC(=O)[C@H](Cc1ccccc1)NC(=O)[C@H](Cc1c[nH]cn1)NC(=O)CCNC(=O)[C@@H](NC(=O)[C@H](C)NC(=O)[C@H](Cc1c[nH]c2ccccc12)NC(=O)[C@H](CCC(N)=O)NC(=O)[C@H](N)Cc1ccccc1)C(C)C)C(N)=O (H-[dF]QWAV[βAla]HF[Nle]-NH2)	8.41	–	pKi [3]: 9.44; pEC50 [4]: 10.22; pKi (Neuromedin-B receptor [5]): 8.05; pEC50 (Neuromedin-B receptor [6]): 9.26; pKi [7]: 9.00
COc1ccc2nc(COc3cc4c(cc3Cl)OCO4)[nH]c2c1	6.29	71	half-life [8]: 30 min; clearance [9]: 61 mL/min/kg; Vd [10]: 1.2 L/kg
COc1ccc2oc(CCc3cc4c(cc3Cl)OCO4)nc2c1	< 4.49	–	–
COc1ccc2nc(CCc3cc4c(cc3Cl)OCO4)[nH]c2c1	6.68	82	–
COc1ccc2nc(C(C)Cc3cc4c(cc3Cl)OCO4)[nH]c2c1 (stereo not given)	6.46	83	–
COc1ccc2nc(CCc3cc4c(cc3Cl)OCO4)sc2c1	< 4.49	–	–
Clc1ccc2nc(COc3cc4c(cc3Cl)OCO4)[nH]c2c1	6.24	59	–
COc1cc(CSc2nc3ccc(OC)cc3[nH]2)cc(OC)c1	5.80	68	–
Clc1cc2c(cc1OCc1nc3ccc(Oc4ccccc4)cc3[nH]1)OCO2	< 4.49	–	–
COc1ccc2nc(SCc3ccncc3)[nH]c2c1	< 4.49	–	–
COc1ccc2[nH]c([S+]([O-])Cc3ncc(C)c(OC)c3C)nc2c1 (stereo not given) [OMEPRAZOLE]	4.85	27	–
